Source: US8952024B2, “Herbicidal pyrimidone derivatives” (E I du Pont de Nemours and Company, priority 2009, dated 2015)

Experiments:
Format in all cases: in vivo
[1] = system: large crabgrass (Digitaria sanguinalis); test: Test A pre-/postemergence plant response
Procedure, shortened: (§1)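 Visual injury rating on a 0–100 scale (0 = no effect, 100 = complete control) was made versus untreated controls after about ten days in the greenhouse. Compounds, formulated in a non-phytotoxic solvent mix containing surfactant, were sprayed preemergence onto loam/sand soil and postemergence onto one- to two-leaf plants.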

[2] = system: giant foxtail (Setaria faberii); test: Test A pre-/postemergence plant response
Procedure, shortened: as §1

[3] = system: barnyardgrass (Echinochloa crus-galli); test: Test A pre-/postemergence plant response
Procedure, shortened: as §1

[4] = system: pigweed (Amaranthus retroflexus); test: Test A pre-/postemergence plant response
Procedure, shortened: as §1

[5] = system: wheat (Triticum aestivum); test: Test A pre-/postemergence plant response
Procedure, shortened: as §1

[6] = system: velvetleaf (Abutilon theophrasti); test: Test A pre-/postemergence plant response
Procedure, shortened: as §1

corn (Zea mays) = test: Test A pre-/postemergence plant response
Procedure, shortened: as §1

[7] = system: morningglory (Ipomoea spp.); test: Test A pre-/postemergence plant response
Procedure, shortened: as §1

[8] = system: ducksalad (Heteranthera limosa); test: Test B flooded paddy test; conditions: for Plant response rating, Ducksalad: Flood (flooded paddy test), 13 to 15 days; for Ducksalad plant response rating: Flood, 31 g ai/ha, scale 0 to 100 (0 no effect, 100 complete control); for Plant response rating, Flood, Ducksalad: 250 g ai/ha, flooded paddy test, visual rating on 0 to 100 scale (0 no effect, 100 complete control) after 13 to 15 days
Procedure, shortened: (§2)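 Rice, umbrella sedge, ducksalad and barnyardgrass were grown to the 2-leaf stage, flooded to 3 cm, and compound was applied directly to the paddy water, with that depth kept throughout. After 13 to 15 days in the greenhouse, plants were visually rated against controls on a 0 (no effect) to 100 (complete control) scale.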

[9] = system: umbrella sedge (Cyperus difformis); test: Test B flooded paddy test; conditions: for Plant response rating, Sedge, Umbrella: Flood (flooded paddy test), 13 to 15 days; for Sedge, Umbrella plant response rating: Flood, 31 g ai/ha, scale 0 to 100 (0 no effect, 100 complete control); for Plant response rating, Flood, Sedge, Umbrella: 250 g ai/ha, flooded paddy test, visual rating on 0 to 100 scale (0 no effect, 100 complete control) after 13 to 15 days
Procedure, shortened: as §2

[10] = system: barnyardgrass (Echinochloa crus-galli); test: Test B flooded paddy test; conditions: for Plant response rating, Barnyardgrass: Flood (flooded paddy test), 13 to 15 days; for Barnyardgrass plant response rating: Flood, 31 g ai/ha, scale 0 to 100 (0 no effect, 100 complete control); for Plant response rating, Flood, Barnyardgrass: 250 g ai/ha, flooded paddy test, visual rating on 0 to 100 scale (0 no effect, 100 complete control) after 13 to 15 days
Procedure, shortened: as §2

rice (Oryza sativa) = test: Test B flooded paddy test; conditions: for Plant response rating, Rice: Flood (flooded paddy test), 13 to 15 days; for Rice plant response rating: Flood, 31 g ai/ha, scale 0 to 100 (0 no effect, 100 complete control); for Plant response rating, Flood, Rice: 250 g ai/ha, flooded paddy test, visual rating on 0 to 100 scale (0 no effect, 100 complete control) after 13 to 15 days
Procedure, shortened: as §2

[11] = Postemergence, 125 g ai/ha, 0 to 100 scale where 0 is no effect and 100 is complete control
[12] = Postemergence, 500 g ai/ha, visual injury, 0 to 100 scale (0 no effect, 100 complete control), approx. ten days
[13] = Preemergence, 125 g ai/ha, 0 to 100 scale, 0 = no effect, 100 = complete control
[14] = Preemergence, 500 g ai/ha, 0 to 100 scale, 0 = no effect, 100 = complete control
[15] = 125 g ai/ha, scale 0 to 100, 0 is no effect, 100 is complete control
[16] = Preemergence, 125 g ai/ha, 0 to 100 scale where 0 is no effect and 100 is complete control, approximately ten days
[17] = Postemergence, 125 g ai/ha, visual injury, 0 to 100 scale (0 no effect, 100 complete control), approx. ten days
[18] = 62 g ai/ha, scale of 0 to 100 where 0 is no effect and 100 is complete control
[19] = Postemergence, 500 g ai/ha, 0 to 100 scale, 0 = no effect, 100 = complete control, approx. ten days
[20] = Preemergence, 500 g ai/ha, visual injury, 0 to 100 scale (0 no effect, 100 complete control), approx. ten days
[21] = 62 g ai/ha, scale 0 to 100, 0 is no effect, 100 is complete control

## O=C1CCCC(O)=C1C(=O)c1cnc(-c2cc(F)cc(F)c2)n(CC2CCCO2)c1=O (stereo not shown) [Compound 180]
[1]; [11]
  Plant response rating, Crabgrass, Large: 90
[1]; [12]
  Crabgrass, Large plant response rating: 100
[1]; [13]
  Plant response rating, Crabgrass, Large: 80
[1]; [14]
  Plant response rating, Crabgrass, Large: 100
[2]; [11]
  Plant response rating, Foxtail, Giant: 70
[2]; [12]
  Foxtail, Giant plant response rating: 100
[2]; [13]
  Plant response rating, Foxtail, Giant: 30
[2]; [14]
  Plant response rating, Foxtail, Giant: 70
[3]; [11]
  Plant response rating, Barnyardgrass: 90
[3]; [12]
  Barnyardgrass plant response rating: 100
[3]; [13]
  Plant response rating, Barnyardgrass: 30
[3]; [14]
  Plant response rating, Barnyardgrass: 80
[4]; [11]
  Plant response rating, Pigweed: 100
[4]; [12]
  Pigweed plant response rating: 100
[4]; [13]
  Plant response rating, Pigweed: 90
[4]; [14]
  Plant response rating, Pigweed: 100
[5]; [11]
  Plant response rating, Wheat: 0
[5]; [12]
  Wheat plant response rating: 30
[5]; [13]
  Plant response rating, Wheat: 0
[5]; [14]
  Plant response rating, Wheat: 20
[6]; [11]
  Plant response rating, Velvetleaf: 100
[6]; [12]
  Velvetleaf plant response rating: 100
[6]; [13]
  Plant response rating, Velvetleaf: 80
[6]; [14]
  Plant response rating, Velvetleaf: 100
Corn (Zea mays); [11]
  Plant response rating, Corn: 10
Corn (Zea mays); [12]
  Corn plant response rating: 40
Corn (Zea mays); [13]
  Plant response rating, Corn: 0
Corn (Zea mays); [14]
  Plant response rating, Corn: 0
[7]; [11]
  Plant response rating, Morningglory: 40
[7]; [12]
  Morningglory plant response rating: 100
[7]; [13]
  Plant response rating, Morningglory: 0
[8]; [15]
  Plant response rating, Ducksalad: 75
[8]
  Ducksalad plant response rating: 60
[9]; [15]
  Plant response rating, Sedge, Umbrella: 65
[9]
  Sedge, Umbrella plant response rating: 20
[10]; [15]
  Plant response rating, Barnyardgrass: 15
[10]
  Barnyardgrass plant response rating: 0
Rice (Oryza sativa); [15]
  Plant response rating, Rice: 30
Rice (Oryza sativa)
  Rice plant response rating: 15

## O=C(C1=C(O)C2CCC(C2)C1=O)c1cnc(-c2ccccc2)n(C2CCOCC2)c1=O (stereo not shown) [Compound 249]
[1]; [11]
  Plant response rating, Crabgrass, Large: 90
[1]; [12]
  Crabgrass, Large plant response rating: 100
[1]; [16]
  Plant response rating, Crabgrass, Large: 40
[1]; [14]
  Plant response rating, Crabgrass, Large: 80
[2]; [17]
  Plant response rating, Foxtail, Giant: 80
[2]; [12]
  Foxtail, Giant plant response rating: 90
[2]; [16]
  Plant response rating, Foxtail, Giant: 20
[2]; [14]
  Plant response rating, Foxtail, Giant: 40
[3]; [11]
  Plant response rating, Barnyardgrass: 90
[3]; [12]
  Barnyardgrass plant response rating: 100
[3]; [16]
  Plant response rating, Barnyardgrass: 0
[3]; [14]
  Plant response rating, Barnyardgrass: 40
[4]; [17]
  Plant response rating, Pigweed: 90
[4]; [12]
  Pigweed plant response rating: 100
[4]; [16]
  Plant response rating, Pigweed: 80
[4]; [14]
  Plant response rating, Pigweed: 100
[5]; [17]
  Plant response rating, Wheat: 10
[5]; [12]
  Wheat plant response rating: 50
[5]; [16]
  Plant response rating, Wheat: 0
[5]; [14]
  Plant response rating, Wheat: 0
[6]; [17]
  Plant response rating, Velvetleaf: 100
[6]; [12]
  Velvetleaf plant response rating: 100
[6]; [16]
  Plant response rating, Velvetleaf: 60
[6]; [14]
  Plant response rating, Velvetleaf: 90
Corn (Zea mays); [11]
  Plant response rating, Corn: 0
Corn (Zea mays); [12]
  Corn plant response rating: 20
Corn (Zea mays); [16]
  Plant response rating, Corn: 0
Corn (Zea mays); [14]
  Plant response rating, Corn: 0
[7]; [17]
  Plant response rating, Morningglory: 100
[7]; [12]
  Morningglory plant response rating: 100
[7]; [16]
  Plant response rating, Morningglory: 30
[7]; [14]
  Plant response rating, Morningglory: 70
[8]
  Plant response rating, Flood, Ducksalad: 90
  Ducksalad plant response rating: 0
[8]; [18]
  Plant response rating, Ducksalad: 65
[8]; [15]
  Plant response rating, Ducksalad: 80
[9]
  Plant response rating, Flood, Sedge, Umbrella: 90
  Sedge, Umbrella plant response rating: 0
[9]; [18]
  Plant response rating, Sedge, Umbrella: 60
[9]; [15]
  Plant response rating, Sedge, Umbrella: 85
[10]
  Plant response rating, Flood, Barnyardgrass: 0
  Barnyardgrass plant response rating: 0
[10]; [18]
  Plant response rating, Barnyardgrass: 0
[10]; [15]
  Plant response rating, Barnyardgrass: 0
Rice (Oryza sativa)
  Plant response rating, Flood, Rice: 15
  Rice plant response rating: 0
Rice (Oryza sativa); [18]
  Plant response rating, Rice: 0
Rice (Oryza sativa); [15]
  Plant response rating, Rice: 0

## COc1ccccc1-n1c(-c2ccccc2)ncc(C(=O)C2=C(O)CCCC2=O)c1=O [Compound 15]
[1]; [17]
  Crabgrass, Large plant response rating: 20
[1]; [19]
  Plant response rating, Crabgrass, Large: 70
[1]; [13]
  Plant response rating, Crabgrass, Large: 40
[1]; [20]
  Plant response rating, Crabgrass, Large: 90
[2]; [17]
  Foxtail, Giant plant response rating: 10
[2]; [19]
  Plant response rating, Foxtail, Giant: 70
[2]; [13]
  Plant response rating, Foxtail, Giant: 40
[2]; [20]
  Plant response rating, Foxtail, Giant: 70
[3]; [17]
  Barnyardgrass plant response rating: 10
[3]; [19]
  Plant response rating, Barnyardgrass: 40
[3]; [13]
  Plant response rating, Barnyardgrass: 10
[3]; [20]
  Plant response rating, Barnyardgrass: 90
[4]; [17]
  Pigweed plant response rating: 60
[4]; [19]
  Plant response rating, Pigweed: 90
[4]; [13]
  Plant response rating, Pigweed: 30
[4]; [20]
  Plant response rating, Pigweed: 90
[5]; [17]
  Wheat plant response rating: 0
[5]; [19]
  Plant response rating, Wheat: 20
[5]; [13]
  Plant response rating, Wheat: 0
[5]; [20]
  Plant response rating, Wheat: 20
[6]; [17]
  Velvetleaf plant response rating: 100
[6]; [19]
  Plant response rating, Velvetleaf: 100
[6]; [13]
  Plant response rating, Velvetleaf: 40
[6]; [20]
  Plant response rating, Velvetleaf: 90
Corn (Zea mays); [17]
  Corn plant response rating: 0
Corn (Zea mays); [19]
  Plant response rating, Corn: 10
Corn (Zea mays); [13]
  Plant response rating, Corn: 0
Corn (Zea mays); [20]
  Plant response rating, Corn: 0
[7]; [17]
  Morningglory plant response rating: 10
[7]; [19]
  Plant response rating, Morningglory: 50
[7]; [13]
  Plant response rating, Morningglory: 0
[7]; [20]
  Plant response rating, Morningglory: 60
[8]
  Plant response rating, Flood, Ducksalad: 60
[8]; [21]
  Plant response rating, Ducksalad: 0
[9]
  Plant response rating, Flood, Sedge, Umbrella: 30
[9]; [21]
  Plant response rating, Sedge, Umbrella: 0
[10]
  Plant response rating, Flood, Barnyardgrass: 35
[10]; [21]
  Plant response rating, Barnyardgrass: 20
Rice (Oryza sativa)
  Plant response rating, Flood, Rice: 0
Rice (Oryza sativa); [21]
  Plant response rating, Rice: 0
